Laboratory results as given in patent US20120129872A1, “FUSED HETEROARYL INHIBITORS OF PRO-MATRIX METALLOPROTEINASE ACTIVATION” (priority 2010, published 2012).

What was measured:
[1] = test system: SCW-induced arthritis; test: Efficacy in rats with SCW-induced arthritis (ankle thickness, clinical scores); format: in vivo, rat; conditions: 5, 20, 50 mg/kg BID
From the text: A polyarthritis can be induced in female Lewis rats following i.p. administration of streptococcal cell wall (SCW) […] (PG-PS) (J Exp Med 1977; 146:1585-1602). The model has an acute phase (days 3-7) that is complement and neutrophil-dependent and that resolves. A chronic erosive phase begins at about day ten and is dependent on the development of specific T cell immunity to the PG-GS, which resists digestion and remains present in synovial macrophages for months. Like rheumatoid arthritis, SCW-induced arthritis is reduced by TNF inhibitors, and the dependence of SCW-induced arthritis on macrophages (Rheumatology; 2001; 40:978-987) and the strong association of rheumatoid arthritis severity with synovial-tissue macrophage counts (Ann Rheum Dis; 2005; 64:834-838) makes SCW-arthritis an attractive model for testing potential therapeutic agents. SCW PG-PS 10S (Beckton Dickinson Cat#210866) suspended in saline was vortexed for 30 seconds and sonicated for 3 min with a probe type sonicator prior to injection. […]
To induce arthritis, Female Lewis (LEW/N) rats, 5-6 weeks of age (80-100 g) were injected (i.p.) with SCW PG-PS as described above. […] Each ankle was measured 3 times and averaged, and treatment groups were randomized based on ankle thickness (Table 6). […]

[2] = biological target: T1, MMP9 (Rattus norvegicus, UniProt P50282); test: Pro and active MMP9 in ankles of rats with SCW-induced arthritis (Western blot); format: in vivo
T1 construct: endogenous in cells; host or cells: primary synoviocytes from arthritic female Lewis rats
T1 sequence (P50282 108-708): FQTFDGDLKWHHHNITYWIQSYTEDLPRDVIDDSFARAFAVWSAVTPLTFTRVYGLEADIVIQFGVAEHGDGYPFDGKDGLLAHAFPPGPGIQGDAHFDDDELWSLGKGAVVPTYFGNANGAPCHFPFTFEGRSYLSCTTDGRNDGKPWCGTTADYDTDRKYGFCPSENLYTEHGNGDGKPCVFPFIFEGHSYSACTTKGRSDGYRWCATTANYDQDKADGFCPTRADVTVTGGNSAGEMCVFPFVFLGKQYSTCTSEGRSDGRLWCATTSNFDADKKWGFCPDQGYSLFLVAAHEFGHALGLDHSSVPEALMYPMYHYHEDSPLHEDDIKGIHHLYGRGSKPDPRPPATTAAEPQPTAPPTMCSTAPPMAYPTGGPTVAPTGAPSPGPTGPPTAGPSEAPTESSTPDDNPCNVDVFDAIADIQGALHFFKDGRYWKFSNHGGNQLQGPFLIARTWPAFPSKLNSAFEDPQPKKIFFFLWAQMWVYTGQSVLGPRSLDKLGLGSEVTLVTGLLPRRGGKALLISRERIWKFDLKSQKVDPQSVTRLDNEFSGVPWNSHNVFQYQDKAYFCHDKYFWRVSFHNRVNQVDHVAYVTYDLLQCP
Description: Hind-limbs were skinned, severed just above the tibia-tarsus joint and below the metatarsals, and the tibia-tarsus joints (ankles) were weighed, snap frozen and pulverized on dry ice using a hammer and anvil. The pulverized tissue was suspended in 3 volumes (w:v) of ice-cold homogenization buffer containing 50 mM Tris pH 7.5, 150 mM NaCl, 5 mM EDTA, 1% Triton X100, 0.05% Brij 30, 10% dimethylsulfoxide and Complete EDTA-free Protease Inhibitor Cocktail (Roche Diagnostics). The suspended tissue was homogenized sequentially with a Kinematica AG Polytron and a Dounce homogenizer. Homogenates were centrifuged at 16,000×g for 10 min at 4° C. and the soluble fractions were saved. Dimethylsulfoxide was removed from a portion of each soluble fraction using PD MiniTrap™ G-25 desalting columns (GE Healthcare). Homogenates (0.25 mL), free of DMSO, were diluted with an equal volume of binding buffer (i.e., homogenization buffer without dimethylsufoxide) and adjusted to contain 50 μL of a 50% slurry of gelatin-conjugated sepharose. Following 2 hours of rotation at 4° C. the beads were washed twice in binding buffer and eluted in 100 μL 2×-reducing Laemmli buffer with heating to 95° C. for 5 minutes. […]

- Abundance of proMMP9 in ankles ([2]; Day 26, FIG. 3A lanes 4-9): did not reduce the abundance of proMMP9
- Abundance of proMMP9 in ankles ([2]; Day 26, FIG. 3A lanes 4-9, listed as Compound a): did not reduce the abundance of proMMP-9
SMILES: Cc1nc(C)c(-c2csc(Nc3cc(S(N)(=O)=O)ccc3OC(C)C)n2)s1 [Compound-α, 3-(2′,4′-Dimethyl-[4,5′]bithiazolyl-2-ylamino)-4-isopropoxy-benzenesulfonamide•HBr]
- Effect on ankle thickness measurements ([1]; Day 18-26): dose-dependent decrease in ankle thickness measurements
- Effect on clinical score measurements ([1]; significant effects emerging at 20 mg/kg): dose dependent decrease in clinical score measurements
